Key:
[1] = molecular target: T1, human vasopressin V1b receptor (Homo sapiens, UniProt P47901); test: Vasopressin V1b receptor binding assay; conditions: CHO-K1 membranes, 3H-AVP displacement
T1 construct: expressed in transfected cells; host or cells: CHO-K1 (cell line hV1b_3H2_CHO), membrane preparation
T1 sequence (P47901 1-424): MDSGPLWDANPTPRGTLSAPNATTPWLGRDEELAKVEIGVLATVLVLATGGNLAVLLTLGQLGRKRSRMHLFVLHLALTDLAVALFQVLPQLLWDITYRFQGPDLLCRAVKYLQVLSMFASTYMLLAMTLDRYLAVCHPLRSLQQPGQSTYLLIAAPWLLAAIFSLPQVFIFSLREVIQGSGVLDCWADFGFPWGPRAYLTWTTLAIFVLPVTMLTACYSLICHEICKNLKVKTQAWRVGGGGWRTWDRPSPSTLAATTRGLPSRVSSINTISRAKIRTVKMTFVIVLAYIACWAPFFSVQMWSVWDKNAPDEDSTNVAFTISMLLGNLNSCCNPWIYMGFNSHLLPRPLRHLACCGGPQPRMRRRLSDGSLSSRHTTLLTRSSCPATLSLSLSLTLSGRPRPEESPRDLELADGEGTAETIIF
Protocol: 1. Vasopressin V1b Receptor Binding Assay:
The test substances were dissolved in a concentration of 10^−2 M in DMSO and further diluted to 5×10^−4 M to 5×10^−3 M. These serial DMSO predilutions were diluted 1:10 with assay buffer. The substance concentration was further diluted 1:5 in the assay mixture (2% DMSO in the mixture).
CHO-K1 cells with stably expressed human vasopressin V1b receptor (clone 3H2) were harvested and homogenized in 50 mM Tris-HCl and in the presence of protease inhibitors (Roche complete Mini #1836170) using a Polytron homogenizer at intermediate setting for 2×10 seconds, and subsequently centrifuged at 40 000×g for 1 h. The membrane pellet was again homogenized and centrifuged as described and subsequently taken up in 50 mM Tris-HCl, pH 7.4, homogenized and stored in aliquots frozen in liquid nitrogen at −190° C.
(§1) The binding assay was carried out by the method based on that of Tahara et al. (Tahara A et al., Brit. J. Pharmacol. 125, 1463-1470 (1998)).
(§2) The incubation buffer was: 50 mM Tris, 10 mM MgCl2, 0.1% BSA, pH 7.4.
In the assay mixture (250 μl), membranes (50 μg/ml protein in incubation buffer) from CHO-K1 cells with stably expressed human V1b receptors (cell line hV1b—3H2_CHO) were incubated with 1.5 nM ^3H-AVP (8-Arg-vasopressin, PerkinElmer #18479) in incubation buffer (50 mM Tris, 10 mM MgCl2, 0.1% BSA, pH 7.4) (total binding) or additionally with increasing concentrations of test substance (displacement experiment). The nonspecific binding was determined with […] (Bachem #H1780). All determinations were carried out as triplicate determinations. After incubation (60 minutes at room temperature), the free radioligand was filtered off by vacuum filtration (Skatron cell harvester 7000) through Wathman GF/B glass fiber filter mats, and the filters were transferred into scintillation vials. The liquid scintillation measurement took place in a model 2000 or 2200CA Tricarb instrument (Packard). Conversion of the measured cpm into dpm was carried out with the aid of a standard quench series.
The binding parameters were calculated by nonlinear regression in SAS. The algorithms of the program operate in analogy to the LIGAND analysis program (Munson P J and Rodbard D, Analytical Biochem. 107, 220-239 (1980)). The Kd of ^3H-AVP for the recombinant human V1b receptors is 0.4 nM and was used to determine the Ki.

[2] = molecular target: T2, human vasopressin V1a receptor (Homo sapiens, UniProt P37288); test: Vasopressin V1a receptor binding assay; conditions: selectivity quotient, human receptors
T2 construct: expressed in transfected cells; host or cells: CHO-K1 (cell line hV1a_5_CHO), membrane preparation
Protocol: 2. Vasopressin V1a Receptor Binding Assay:
The test substances were dissolved in a concentration of 10^−2 M in DMSO. Further dilution of these DMSO solutions took place in incubation buffer (50 mM Tris, 10 mM MgCl2, 0.1% BSA, pH 7.4).
CHO-K1 cells with stably expressed human vasopressin V1a receptor (clone 5) were harvested and homogenized in 50 mM Tris-HCl and in the presence of protease inhibitors (Roche complete Mini #1836170) using a Polytron homogenizer at intermediate setting for 2×10 seconds, and subsequently centrifuged at 40 000×g for 1 h. The membrane pellet was again homogenized and centrifuged as described and subsequently taken up in 50 mM Tris-HCl, pH 7.4, homogenized and stored in aliquots frozen in liquid nitrogen at −190° C.
as §1, §2
In the assay mixture (250 μl), membranes (20 μg/ml protein in incubation buffer) from CHO-K1 cells with stably expressed human V1a receptors (cell line hV1a—5_CHO) were incubated with 0.04 nM ^125I-AVP (8-Arg-vasopressin, NEX 128) in incubation buffer (50 mM Tris, 10 mM MgCl2, 0.1% BSA, pH 7.4) (total binding) or additionally with increasing concentrations of test substance (displacement experiment). The nonspecific binding was determined with 1 μM AVP (Bachem #H1780). Triplicate determinations were carried out.
After incubation (60 minutes at room temperature), the free radioligand was filtered off by vacuum filtration (Skatron cell harvester 7000) through Wathman GF/B glass fiber filter mats, and the filters were transferred into scintillation vials.
The liquid scintillation measurement took place in a model 2000 or 2200CA Tricarb instrument (Packard). Conversion of the measured cpm into dpm was carried out with the aid of a standard quench series.
The binding parameters were calculated by nonlinear regression in SAS. The algorithms of the program operate in analogy to the LIGAND analysis program (Munson P J and Rodbard D, Analytical Biochem. 107, 220-239 (1980)). The Kd of ^125I-AVP for the recombinant hV1a receptors was determined in saturation experiments. A Kd of 1.33 nM was used to determine the Ki.

human oxytocin receptors = molecular target: T3, human oxytocin receptors (Homo sapiens, UniProt P30559); test: Oxytocin receptor binding assay; conditions: selectivity quotient
T3 construct: expressed in transfected cells; host or cells: HEK-293, transient expression; lysed and homogenized cells
T3 sequence (P30559 1-389): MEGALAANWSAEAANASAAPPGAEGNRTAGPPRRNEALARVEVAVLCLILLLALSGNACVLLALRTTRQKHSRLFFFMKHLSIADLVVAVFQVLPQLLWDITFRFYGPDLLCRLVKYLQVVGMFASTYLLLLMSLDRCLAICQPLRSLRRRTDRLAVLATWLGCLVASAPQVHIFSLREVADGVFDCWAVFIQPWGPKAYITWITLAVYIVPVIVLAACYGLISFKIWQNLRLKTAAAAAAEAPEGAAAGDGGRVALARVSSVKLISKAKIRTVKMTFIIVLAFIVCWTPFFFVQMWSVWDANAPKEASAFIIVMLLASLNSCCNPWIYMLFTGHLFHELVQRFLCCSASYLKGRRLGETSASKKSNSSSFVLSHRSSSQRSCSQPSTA
Protocol: 4. Oxytocin Receptor Binding Assay
The substances were dissolved in a concentration of 10^−2 M in DMSO and diluted with incubation buffer (50 mM Tris, 10 mM MgCl2, 0.1% BSA, pH 7.4).
Confluent HEK-293 cells with transiently expressing recombinant human oxytocin receptors were centrifuged at 750×g at room temperature for 5 minutes. The residue was taken up in ice-cold lysis buffer (50 mM Tris-HCl, 10% glycerol, pH 7.4 and Roche complete protease inhibitor) and subjected to an osmotic shock at 4° C. for 20 minutes. The lyzed cells were then centrifuged at 750×g at 4° C. for 20 minutes, the residue was taken up in incubation buffer, and aliquots of 10^7 cells/ml were prepared. The aliquots were frozen at −80° C. until used.
On the day of the experiment, the cells were thawed, diluted with incubation buffer and homogenized using a Multipette Combitip (Eppendorf, Hamburg). The reaction mixture of 0.250 ml was composed of 2 to 5×10^4 recombinant cells, 3-4 nM ^3H-oxytocin (PerkinElmer, NET 858) in the presence of test substance (inhibition plot) or only incubation buffer (total binding). The nonspecific binding was determined with 10^−6 M oxytocin (Bachem AG, H2510). Triplicate determinations were set up. Bound and free radioligand were separated by filtration under vacuum with Whatman GF/B glass fiber filters with the aid of a Skatron cell harvester 7000. The bound radioactivity was determined by liquid scintillation measurement in a Tricarb Beta counter, model 2000 or 2200CA (Packard).
The binding parameters were calculated by nonlinear regression analysis (SAS) in analogy to the LIGAND program of Munson and Rodbard (Analytical Biochem 1980; 107: 220-239). The Kd of ^3H-oxytocin for the recombinant hOT receptors is 7.6 nM and was used to determine the Ki.

T2 sequence (P37288 whole entry): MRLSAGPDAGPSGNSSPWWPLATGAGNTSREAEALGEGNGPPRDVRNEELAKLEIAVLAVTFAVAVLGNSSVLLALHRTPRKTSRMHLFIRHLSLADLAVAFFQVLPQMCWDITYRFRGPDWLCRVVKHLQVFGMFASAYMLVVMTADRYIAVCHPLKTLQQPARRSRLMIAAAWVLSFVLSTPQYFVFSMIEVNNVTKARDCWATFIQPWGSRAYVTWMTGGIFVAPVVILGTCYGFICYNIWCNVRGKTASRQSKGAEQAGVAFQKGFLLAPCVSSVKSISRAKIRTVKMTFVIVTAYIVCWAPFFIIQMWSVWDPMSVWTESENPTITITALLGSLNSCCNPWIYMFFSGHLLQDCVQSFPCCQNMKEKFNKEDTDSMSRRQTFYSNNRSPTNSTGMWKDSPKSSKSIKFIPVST

CCOc1ncccc1C1(OC(=O)N2CCN(C3CCN(C)CC3)CC2)C(=O)N(S(=O)(=O)c2ccccc2OC)c2cc(F)c(F)cc21 (stereo not drawn) [Example 53, 3-(2-Ethoxypyridin-3-yl)-5,6-difluoro-1-(2-methoxyphenylsulfonyl)-2-oxo-2,3-dihydro-1H-indol-3-yl 4-(1-methylpiperidin-4-yl)piperazine-1-carboxylate]
Ki [1]: 1 to 10 nM | Ki(h − V1a)/Ki(h − V1b)* [2]: ++ (25-75) | Ki(h − OT)/Ki(h − V1b)* (human oxytocin receptors): ++ (25-75)

CCOc1ccccc1C1(NC(=O)N2CCC(N3CCN(CC)CC3)CC2)C(=O)N(S(=O)(=O)c2ccc(OC)cc2OC)c2cc(F)c(C#N)cc21 (stereo not drawn) [Example 16, 4-(4-Ethylpiperazin-1-yl)piperidine-1-[5-cyano-1-(2,4-dimethoxyphenylsulfonyl)-3-(2-ethoxyphenyl)-6-fluoro-2-oxo-2,3-dihydro-1H-indol-3-yl]carboxamide]
Ki [1]: < 1 nM | Ki(h − V1a)/Ki(h − V1b)* [2]: + (10-<25) | Ki(h − OT)/Ki(h − V1b)* (human oxytocin receptors): +++ (>75)

CCOc1ccccc1C1(NC(=O)N2CCC(N3CCN(C)CC3)CC2)C(=O)N(S(=O)(=O)c2ccc(OC)cc2)c2cc(F)c(C#N)cc21 (stereo not drawn) [Example 15, 4-(4-Methylpiperazin-1-yl)piperidine-1-[5-cyano-3-(2-ethoxyphenyl)-6-fluoro-1-(4-methoxyphenylsulfonyl)-2-oxo-2,3-dihydro-1H-indol-3-yl]carboxamide]
Ki [1]: 1 to 10 nM | Ki(h − V1a)/Ki(h − V1b)* [2]: + (10-<25) | Ki(h − OT)/Ki(h − V1b)* (human oxytocin receptors): +++ (>75)

CCOc1ncccc1C1(NC(=O)N2CCC(N3CCN(CC)CC3)CC2)C(=O)N(S(=O)(=O)c2ccc(OC)cc2OC)c2cc(F)c(C#N)cc21 (stereo not drawn) [Example 4, 4-(4-Ethylpiperazin-1-yl)piperidine-1-[5-cyano-1-(2,4-dimethoxyphenylsulfonyl)-3-(2-ethoxypyridin-3-yl)-6-fluoro-2-oxo-2,3-dihydro-1H-indol-3-yl]carboxamide]
Ki [1]: < 1 nM | Ki(h − V1a)/Ki(h − V1b)* [2]: ++ (25-75) | Ki(h − OT)/Ki(h − V1b)* (human oxytocin receptors): +++ (>75)

CCOc1ncccc1C1(OC(=O)N2CCN(C3CCN(C)CC3)CC2)C(=O)N(S(=O)(=O)c2ccccc2)c2cc(F)c(C#N)cc21 (stereo not drawn) [Example 40, 1-Phenylsulfonyl-5-cyano-3-(2-ethoxypyridin-3-yl)-6-fluoro-2-oxo-2,3-dihydro-1H-indol-3-yl 4-(1-methylpiperidin-4-yl)piperazine-1-carboxylate]
Ki [1]: 1 to 10 nM | Ki(h − V1a)/Ki(h − V1b)* [2]: + (10-<25) | Ki(h − OT)/Ki(h − V1b)* (human oxytocin receptors): +++ (>75)

CCOc1ncccc1C1(NC(=O)N2CCC(N3CCN(CC)CC3)CC2)C(=O)N(S(=O)(=O)c2ccc(OC)cc2)c2cc(F)c(C#N)cc21 (stereo not drawn) [Example 8, 4-(4-Ethylpiperazin-1-yl)piperidine-1-[5-cyano-3-(2-ethoxypyridin-3-yl)-6-fluoro-1-(4-methoxyphenylsulfonyl)-2-oxo-2,3-dihydro-1H-indol-3-yl]carboxamide]
Ki [1]: 1 to 10 nM | Ki(h − V1a)/Ki(h − V1b)* [2]: ++ (25-75) | Ki(h − OT)/Ki(h − V1b)* (human oxytocin receptors): +++ (>75)

CCOc1ncccc1C1(NC(=O)N2CCN(C3CCN(C)CC3)CC2)C(=O)N(S(=O)(=O)c2ccc(OC)cc2OC)c2cc(F)c(C#N)cc21 (stereo not drawn) [Example 1, 4-(1-Methylpiperidin-4-yl)piperazin-1-[5-cyano-1-(2,4-dimethoxyphenylsulfonyl)-3-(2-ethoxypyridin-3-yl)-6-fluoro-2-oxo-2,3-dihydro-1H-indol-3-yl]carboxamide]
Ki [1]: < 1 nM | Ki(h − V1a)/Ki(h − V1b)* [2]: +++ (>75) | Ki(h − OT)/Ki(h − V1b)* (human oxytocin receptors): +++ (>75)

CCOc1ccccc1C1(NC(=O)N2CCN(C3CCN(CC)CC3)CC2)C(=O)N(S(=O)(=O)c2ccc(OC)cc2)c2cc(F)c(C#N)cc21 (stereo not drawn) [Example 12, 4-(1-Ethylpiperidin-4-yl)piperazine-1-[5-cyano-3-(2-ethoxyphenyl)-6-fluoro-1-(4-methoxyphenylsulfonyl)-2-oxo-2,3-dihydro-1H-indol-3-yl]carboxamide]
Ki [1]: 1 to 10 nM | Ki(h − V1a)/Ki(h − V1b)* [2]: +++ (>75) | Ki(h − OT)/Ki(h − V1b)* (human oxytocin receptors): +++ (>75)
